Data from paper PMC7880690, “Chemical genetics and proteome-wide site mapping reveal cysteine MARylation by PARP-7 on immune-relevant protein targets” (eLife, 2021).

Assays:
PARP-7 = biological target: T1, PARP-7 (Homo sapiens, UniProt Q7Z3E1); conditions: time course in HEK 293 T cells
T1 sequence (Q7Z3E1 1-657): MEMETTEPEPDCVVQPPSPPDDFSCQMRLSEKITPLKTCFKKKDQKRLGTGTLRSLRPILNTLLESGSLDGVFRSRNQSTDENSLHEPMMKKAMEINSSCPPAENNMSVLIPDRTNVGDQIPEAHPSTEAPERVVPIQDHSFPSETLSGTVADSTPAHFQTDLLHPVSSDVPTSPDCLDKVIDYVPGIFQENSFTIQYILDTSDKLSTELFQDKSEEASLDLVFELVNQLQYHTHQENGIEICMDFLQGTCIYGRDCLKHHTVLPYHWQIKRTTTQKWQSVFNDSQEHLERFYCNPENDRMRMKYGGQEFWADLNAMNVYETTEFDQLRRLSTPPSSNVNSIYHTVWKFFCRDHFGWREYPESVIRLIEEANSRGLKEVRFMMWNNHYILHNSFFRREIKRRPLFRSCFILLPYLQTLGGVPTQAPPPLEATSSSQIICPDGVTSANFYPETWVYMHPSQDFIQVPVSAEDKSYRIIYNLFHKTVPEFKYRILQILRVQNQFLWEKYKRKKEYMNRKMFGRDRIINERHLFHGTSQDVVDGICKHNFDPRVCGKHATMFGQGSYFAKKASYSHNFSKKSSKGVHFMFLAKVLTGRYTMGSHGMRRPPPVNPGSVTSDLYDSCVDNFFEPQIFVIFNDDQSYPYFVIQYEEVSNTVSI

IG-PARP-7 (I631G PARP-7) = biological target: T2, IG-PARP-7 (I631G PARP-7) (Homo sapiens, UniProt Q7Z3E1, I631G); assay: Labeling by orthogonal NAD+ analogs in HEK 293T lysates expressing GFP-IG-PARP-7 (click with biotin-azide, Streptavidin-HRP); format: biochemical; conditions: HEK 293 T cell lysates, 100 µM NAD+ analog
T2 construct: expressed in transfected cells; host or cells: HEK 293T (lysate)
T2 sequence (Q7Z3E1 whole entry I631G): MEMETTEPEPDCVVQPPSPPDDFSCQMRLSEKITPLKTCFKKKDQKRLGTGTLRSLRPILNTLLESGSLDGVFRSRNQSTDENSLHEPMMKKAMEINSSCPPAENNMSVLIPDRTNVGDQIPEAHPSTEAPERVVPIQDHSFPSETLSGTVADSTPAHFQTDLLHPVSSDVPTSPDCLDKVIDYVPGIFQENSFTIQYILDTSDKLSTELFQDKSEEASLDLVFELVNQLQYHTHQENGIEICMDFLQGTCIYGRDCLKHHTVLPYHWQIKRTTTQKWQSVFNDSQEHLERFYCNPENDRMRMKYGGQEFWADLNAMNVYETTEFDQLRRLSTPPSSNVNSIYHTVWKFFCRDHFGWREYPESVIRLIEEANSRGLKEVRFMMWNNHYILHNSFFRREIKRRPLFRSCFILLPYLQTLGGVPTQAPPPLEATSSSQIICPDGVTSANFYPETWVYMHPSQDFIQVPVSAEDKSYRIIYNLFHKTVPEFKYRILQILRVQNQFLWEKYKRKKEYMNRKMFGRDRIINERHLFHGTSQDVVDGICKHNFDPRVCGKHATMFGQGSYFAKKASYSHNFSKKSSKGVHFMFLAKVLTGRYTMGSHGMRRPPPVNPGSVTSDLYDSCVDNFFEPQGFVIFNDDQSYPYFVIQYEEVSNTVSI
Source text: Identifying the protein targets of PARP-7 is a critical first step toward unraveling its function in cells. In previous work we have developed an engineered enzyme—modified substrate strategy for identifying relevant targets of individual PARP family members ([Carter-O'Connell et al., 2014]; [Carter-O'Connell et al., 2016]; [Carter-O'Connell and Cohen, 2015]; [Carter-O'Connell et al., 2018]). This chemical genetic (CG) method uses engineered PARPs and an orthogonal NAD^+ analogue that contains a clickable handle (e.g. an alkyne) that is located at the N-6 position of the adenine ring (5-Bn-6-a-NAD^+). […] Importantly, 5-Bn-6-a-NAD^+ is not used by wild-type (WT) PARPs and in this way is orthogonal to native NAD^+. […] We therefore sought a new orthogonal NAD^+ analogue that would serve as an efficient substrate for floor position engineered PARP-7, I631G PARP-7 (IG-PARP-7) (Figure 1a).
Figure 1. A chemical genetic strategy for identifying the direct MARylation targets of PARP-7. (a) Schematic of chemical genetic approach for identifying direct targets of PARP-7. (b) Crystal structure of human PARP1 bound to the non-hydrolyzable NAD^+ analog benzamide adenine dinucleotide (BAD). PDB: 6bhv. […] Following copper-catalyzed click chemistry with biotin-azide, proteins were resolved by SDS-PAGE and biotinylated proteins were detected by Western blot detection using Streptavidin-HRP. […]

Row | decay of PARP-7-mediated MARylation of PARP-13.2 (PARP-7) | Compound | substrate for floor position engineered PARP-7 (IG-PARP-7) (IG-PARP-7 (I631G PARP-7))
1 | does not lead to the decay | C[C@]1(c2nc3c(C(N)=O)cccc3[nH]2)CCCN1 [veliparib] | 
2 |  | C#CCNc1ncnc2c1ncn2C1OC(COP(=O)(O)OP(=O)([O-])OCC2OC([n+]3cc(Cc4ccccc4)cc(C(N)=O)c3)C(O)C2O)C(O)C1O (centres unmarked) [5-Bn-6-a-NAD^+, reference compound] | poor substrate
